Assay results from article PMC8524809 (Molecular Therapy, 2021).

Key:
[1] = system: SARS-CoV-2 S pseudovirion alpha variant; assay type: cell-based; settings: similar to the WT
[2] = system: SARS-CoV-2 S pseudovirion beta variant; assay type: cell-based; settings: similar to the WT

In the case of `CC(C)(O)c1ccccc1CC[C@@H](SCC1(CC(=O)O)CC1)c1cccc(/C=C/c2ccc3ccc(Cl)cc3n2)c1` [montelukast], the “Inhibition of pseudovirus entry” value [1] is reported as “increase in a dose-dependent manner” and the “Inhibition of pseudovirus entry” value [2] is reported as “increase in a dose-dependent manner”.
